Where no end group is shown, it is not given here.
How the values were obtained:
AFP+/HLA A2.1+ HepG2 = assay: 4 hour 51Cr-release assay of peptide-generated CTL against HepG2; type: cell-based, human
Procedure: IL-2 was added twice weekly at 10 units/ml. […] Non-specific NK killing was assessed with the NK sensitive target K562. The CTL were also tested against the HLA A2.1-positive, AFP-positive human hepatocellular carcinoma cell line, HepG2. Referring now to Table III, there are shown the cytotoxicity results of tests for the twelve AFP peptide sequences used to generate CTL from normal donors that gave positive peptide cytotoxicity results. […] Further, new AFP49 peptide-generated CTL cultures were made using two different, normal HLA A2.1 donors. Additional targets were used to confirm that the cytotoxicity observed using AFP49 was AFP antigen-specific and class I restricted. Referring now to FIG. 1, there is shown representative data of these tests. First, to confirm that the observed cytotoxicity was class I restricted, anti-β2 microglobulin antibody was used to block the CTL-T cell receptor interaction on HepG2 cells. […] Next, to eliminate non-specific NK/LAK killing, a 40-fold excess of unlabeled (cold) K562 cells was added. […] Also, an AFP+, HLA A2.1-negative hepatocellular carcinoma cell line, Hep3B, that is, a class I-mismatched hepatocellular carcinoma cell line, was also used as a target. […] This small amount of observed Hep3B lysis was eliminated by adding an excess of cold K562 cells, in contrast to the retention of specific killing of HepG2 when cold K562 cells were added.

HLA A2.1 [1] = target: T1, HLA A2.1 (Homo sapiens, UniProt P04439, D140Y/D185E/D98H/E176V/E277Q/G131W/G231S/I119V/I121R/I166T/I218V/L300P/L318F/N151K/N90K/P208A/P217A/Q86G/Q94H/R138H/R169H/T345S); assay: EBV lymphoblastoid cell off-kinetics assay; type: binding; conditions: for Time of Peptide Stability on Lymphoblastoid Cells: pulsed at 200 μM for 1 hour, followed 0, 2, 4 and 6 hours at 37° C., (n.s.) = not stable
Text: The cells were washed at the end of each time point and stained for HLA A2 with the BB7.2 antibody.

HLA A2.1 [2] = target: T1, HLA A2.1; assay: T2 cell stabilization assay; type: binding; conditions: peptide tested 0.1 μM-100 μM; flow cytometry with BB7.2; (n.s.) = not stable
[3] = test system: T2 cells pulsed with the specific peptide; conditions: FIG. 2; T2 pulsed with specific peptide versus a different HLA A2.1 binding peptide
[4] = test system: M202 (HLA A2.1+/AFP-) melanoma cells transduced with AdVhAFP; assay: chromium release assay of peptide-specific CTL against M202 cells transduced with AdVhAFP or control AdVRR5; type: cell-based, human; conditions: FIG. 2

LLNFTESRT [AFP7]
AFP+/HLA A2.1+ HepG2 Cytotoxicity (AFP+/HLA A2.1+ HepG2; E:T 10:1): 6% | AFP+/HLA A2.1+ HepG2 Cytotoxicity (AFP+/HLA A2.1+ HepG2; E:T 50:1): 15%

NLVKQKPQI [AFP23]
AFP+/HLA A2.1+ HepG2 Cytotoxicity (AFP+/HLA A2.1+ HepG2; E:T 5:1): 2% | AFP+/HLA A2.1+ HepG2 Cytotoxicity (AFP+/HLA A2.1+ HepG2; E:T 20:1): 15%

KMVKDALTAI [AFP64, residues 65-74 of hAFP]
Time of Peptide Stability on Lymphoblastoid Cells (HLA A2.1 [1]): (n.s.) | Minimum Concentration of Peptide to Stabilize A2 on T2 cells (HLA A2.1 [2]): 100 µM

GVALQTMKV (listed as Homo sapiens) [AFP49V9, single amino acid substitution in position 9 of AFP49]
peptide specificity of CTL culture [3]: showed peptide specificity | killing of M202/AdVhAFP compared with AFP49 peptide-specific CTL cultures [4]: even more effectively | killing of M202/AdVhAFP versus M202/RR5 [4]: significantly more killing of M202 cells transduced with AdVhAFP

FVQEATYKF [AFP8, residues 54-62 of hAFP]
Time of Peptide Stability on Lymphoblastoid Cells (HLA A2.1 [1]): >2 h | Minimum Concentration of Peptide to Stabilize A2 on T2 cells (HLA A2.1 [2]): (n.s.)

PVNPGVGQC [AFP39]
AFP+/HLA A2.1+ HepG2 Cytotoxicity (AFP+/HLA A2.1+ HepG2; E:T 10:1): 12% | AFP+/HLA A2.1+ HepG2 Cytotoxicity (AFP+/HLA A2.1+ HepG2; E:T 50:1): 29%

FQKLGEYYL [AFP34, residues 419-427 of hAFP]
Time of Peptide Stability on Lymphoblastoid Cells (HLA A2.1 [1]): (n.s.) | Minimum Concentration of Peptide to Stabilize A2 on T2 cells (HLA A2.1 [2]): 100 µM

YIQESQALA [AFP13, residues 404-412 of hAFP]
Time of Peptide Stability on Lymphoblastoid Cells (HLA A2.1 [1]): >2 h | Minimum Concentration of Peptide to Stabilize A2 on T2 cells (HLA A2.1 [2]): 10.0 µM

FQAITVTKL [AFP45]
AFP+/HLA A2.1+ HepG2 Cytotoxicity (AFP+/HLA A2.1+ HepG2; E:T 10:1): 9% | AFP+/HLA A2.1+ HepG2 Cytotoxicity (AFP+/HLA A2.1+ HepG2; E:T 50:1): 27%

QLTSSELMAI [AFP14, residues 441-450 of hAFP]
off-kinetics (in words) (HLA A2.1 [1]): slow off-kinetics | Time of Peptide Stability on Lymphoblastoid Cells (HLA A2.1 [1]): >2 h | Minimum Concentration of Peptide to Stabilize A2 on T2 cells (HLA A2.1 [2]): 50.0 µM

KLVLDVAHV [AFP4]
AFP+/HLA A2.1+ HepG2 Cytotoxicity (AFP+/HLA A2.1+ HepG2; E:T 5:1): 4% | AFP+/HLA A2.1+ HepG2 Cytotoxicity (AFP+/HLA A2.1+ HepG2; E:T 20:1): 7%

GVALQTMKL (listed as Homo sapiens) [AFP49L9, single amino acid substitution in position 9 of AFP49]
killing of M202/AdVhAFP compared with AFP49 peptide-specific CTL cultures [4]: even more effectively | killing of M202/AdVhAFP versus M202/RR5 [4]: significantly more killing of M202 cells transduced with AdVhAFP

TMKQEFLINL [AFP22]
AFP+/HLA A2.1+ HepG2 Cytotoxicity (AFP+/HLA A2.1+ HepG2; E:T 5:1): 9% | AFP+/HLA A2.1+ HepG2 Cytotoxicity (AFP+/HLA A2.1+ HepG2; E:T 20:1): 24%

YICSQQDTL [AFP28, residues 287-295 of hAFP]
Time of Peptide Stability on Lymphoblastoid Cells (HLA A2.1 [1]): 2 h | Minimum Concentration of Peptide to Stabilize A2 on T2 cells (HLA A2.1 [2]): 50 µM

KELRESSLL [AFP16, residues 211-219 of hAFP]
Time of Peptide Stability on Lymphoblastoid Cells (HLA A2.1 [1]): 2 h | Minimum Concentration of Peptide to Stabilize A2 on T2 cells (HLA A2.1 [2]): (n.s.)

TLSNKITEC [AFP60, residues 294-302 of hAFP]
Time of Peptide Stability on Lymphoblastoid Cells (HLA A2.1 [1]): (n.s.) | Minimum Concentration of Peptide to Stabilize A2 on T2 cells (HLA A2.1 [2]): 50 µM

KQEFLINLV [AFP37]
AFP+/HLA A2.1+ HepG2 Cytotoxicity (AFP+/HLA A2.1+ HepG2; E:T 5:1): 0% | AFP+/HLA A2.1+ HepG2 Cytotoxicity (AFP+/HLA A2.1+ HepG2; E:T 25:1): 2%

SLVVDETYV [AFP17, residues 514-522 of hAFP]
Time of Peptide Stability on Lymphoblastoid Cells (HLA A2.1 [1]): (n.s.) | Minimum Concentration of Peptide to Stabilize A2 on T2 cells (HLA A2.1 [2]): 1.0 µM

FMNKFIYEI [AFP5]
AFP+/HLA A2.1+ HepG2 Cytotoxicity (AFP+/HLA A2.1+ HepG2; E:T 5:1): 4% | AFP+/HLA A2.1+ HepG2 Cytotoxicity (AFP+/HLA A2.1+ HepG2; E:T 20:1): 7%

MKWVESIFL [AFP38]
AFP+/HLA A2.1+ HepG2 Cytotoxicity (AFP+/HLA A2.1+ HepG2; E:T 10:1): 0% | AFP+/HLA A2.1+ HepG2 Cytotoxicity (AFP+/HLA A2.1+ HepG2; E:T 50:1): 12%

GVALQTMKQ [AFP49]
AFP+/HLA A2.1+ HepG2 Cytotoxicity (AFP+/HLA A2.1+ HepG2; E:T 10:1): 17% | AFP+/HLA A2.1+ HepG2 Cytotoxicity (AFP+/HLA A2.1+ HepG2; E:T 50:1): 45%

ILLWAARYD [AFP18, residues 178-186 of hAFP]
Time of Peptide Stability on Lymphoblastoid Cells (HLA A2.1 [1]): >6 h | Minimum Concentration of Peptide to Stabilize A2 on T2 cells (HLA A2.1 [2]): (n.s.)
